Data published in publication PMC5840146, “Structure-Activity Relationship Analysis of 3-Phenylcoumarin-Based Monoamine Oxidase B Inhibitors” (Frontiers in Chemistry, 2018).
Read-outs that look alike come from different tables or passages of the source.

Assays:
MAO-B [1] = target: T1, MAO-B (Homo sapiens, UniProt P27338); conditions: cited from earlier work; for pIC50: MAO-B; for IC50: read-out: MAO-B inhibition IC50
T1 construct: purchased Sigma-Aldrich
T1 sequence (P27338 1-520): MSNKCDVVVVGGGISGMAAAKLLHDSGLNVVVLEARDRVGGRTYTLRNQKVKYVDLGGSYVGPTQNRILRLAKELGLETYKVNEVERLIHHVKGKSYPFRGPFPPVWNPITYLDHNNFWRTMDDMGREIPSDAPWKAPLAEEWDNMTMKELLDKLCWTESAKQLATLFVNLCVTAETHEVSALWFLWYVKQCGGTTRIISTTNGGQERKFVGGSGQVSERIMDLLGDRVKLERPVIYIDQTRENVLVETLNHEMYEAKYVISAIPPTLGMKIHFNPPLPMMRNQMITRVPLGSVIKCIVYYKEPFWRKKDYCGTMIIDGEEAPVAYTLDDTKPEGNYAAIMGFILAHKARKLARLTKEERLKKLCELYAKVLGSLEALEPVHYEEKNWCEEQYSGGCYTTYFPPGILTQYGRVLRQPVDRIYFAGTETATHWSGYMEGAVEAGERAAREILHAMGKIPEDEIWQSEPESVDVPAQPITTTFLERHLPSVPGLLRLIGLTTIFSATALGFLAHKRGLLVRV

MAO-B [2] = target: T1, MAO-B; assay: MAO-B inhibition of prior 3-phenylcoumarins (literature data); assay type: biochemical; conditions: LiPE = pIC50 - QPlogPo/w, literature IC50
[3] = from literature IC50 ref Matos et al., 2011a
[4] = prior 3-phenylcoumarins ref Matos et al., 2011a
[5] = from literature IC50 ref Matos et al., 2009, 2011a
[6] = prior 3-phenylcoumarins ref Matos et al., 2009, 2011a
[7] = from literature IC50 ref Matos et al., 2010
[8] = prior 3-phenylcoumarins ref Matos et al., 2010
[9] = from literature IC50 ref Matos et al., 2011b
[10] = prior 3-phenylcoumarins ref Matos et al., 2011b
[11] = from literature IC50 ref Serra et al., 2012
[12] = prior 3-phenylcoumarins ref Serra et al., 2012

SMILES | LiPE (MAO-B [2]) | pIC50 (MAO-B [1]; [3]) | IC50 (MAO-B [1]; [4]) [nM] | other results
Cc1cc(Br)c2oc(=O)c(-c3ccccc3)cc2c1 [CHEMBL1221930] | 0.95 | – | – | pIC50 (MAO-B [1]; [7]): 4.96; IC50 (MAO-B [1]; [8]): 11000 nM
COc1cc(OC)cc(-c2cc3cc(C)cc(Br)c3oc2=O)c1 [CHEMBL1221981] | 1.02 | – | – | pIC50 (MAO-B [1]; [7]): 5.15; IC50 (MAO-B [1]; [8]): 7120 nM
COc1cc(-c2cc3cc(C)cc(Br)c3oc2=O)cc(OC)c1OC [CHEMBL1221982] | 1.09 | – | – | pIC50 (MAO-B [1]; [7]): 5.31; IC50 (MAO-B [1]; [8]): 4890 nM
COc1cc(Br)cc2cc(-c3ccccc3)c(=O)oc12 [CHEMBL1777814] | 3.35 | – | – | pIC50 (MAO-B [1]; [9]): 7.08; IC50 (MAO-B [1]; [10]): 83.5 nM
COc1ccc(-c2cc3cc(Br)cc(OC)c3oc2=O)cc1 [CHEMBL1777845] | 5.09 | – | – | pIC50 (MAO-B [1]; [9]): 8.87; IC50 (MAO-B [1]; [10]): 1.35 nM
O=c1oc2c(O)cc(Br)cc2cc1-c1ccccc1 [CHEMBL1777847] | 1.45 | – | – | pIC50 (MAO-B [1]; [9]): 4.51; IC50 (MAO-B [1]; [10]): 30900 nM
O=c1oc2c(O)cc(Br)cc2cc1-c1ccc(O)cc1 [CHEMBL1777849] | 2.46 | – | – | pIC50 (MAO-B [1]; [9]): 4.77; IC50 (MAO-B [1]; [10]): 16900 nM
Cc1ccc2oc(=O)c(-c3ccccc3)cc2c1 [CHEMBL1783714] | 3.08 | – | – | pIC50 (MAO-B [1]; from literature IC50 ref Matos et al., 2009, 2011a, Viña et al., 2012b): 6.55; IC50 (MAO-B [1]; prior 3-phenylcoumarins ref Matos et al., 2009, 2011a, Viña et al., 2012b): 284 nM
Cc1ccc(-c2cc3cc(O)ccc3oc2=O)cc1 [CHEMBL1835225] | 4.42 | 7.17 | 67.1 | –
CC(=O)COc1ccc2oc(=O)c(-c3ccc(C)cc3)cc2c1 [CHEMBL1835226] | 2.32 | 5.26 | 5520 | –
Cc1ccc(-c2cc3cc(OC4CCCC4)ccc3oc2=O)cc1 [CHEMBL1835227] | 0.14 | 4.84 | 14500 | –
Cc1ccc2oc(=O)c(-c3ccccc3O)cc2c1 [CHEMBL1835327] | 4.08 | 6.92 | 120 | –
CC(=O)COc1cccc(-c2cc3cc(C)ccc3oc2=O)c1 [CHEMBL1835328] | 3.80 | 6.74 | 180 | –
COc1ccc(-c2c(O)c3ccccc3oc2=O)cc1 [CHEMBL1917495] | 1.49 | – | – | pIC50 (MAO-B [1]; [11]): 4.16; IC50 (MAO-B [1]; [12]): 69600 nM
COc1ccc(-c2c(O)c3cc(C)ccc3oc2=O)cc1 [CHEMBL1934673] | 1.53 | – | – | pIC50 (MAO-B [1]; [11]): 4.49; IC50 (MAO-B [1]; [12]): 32000 nM
COc1ccc(-c2c(O)c3cc(C)ccc3oc2=O)cc1Cl [CHEMBL1934676] | 0.88 | – | – | pIC50 (MAO-B [1]; [11]): 4.37; IC50 (MAO-B [1]; [12]): 42700 nM
COc1ccc(-c2c(O)c3cc(Cl)ccc3oc2=O)cc1Cl [CHEMBL1934677] | 1.88 | – | – | pIC50 (MAO-B [1]; [11]): 5.55; IC50 (MAO-B [1]; [12]): 2790 nM

Now from value to compound, other results behind:

LiPE (MAO-B [2]) | SMILES | pIC50 (MAO-B [1]; [3]) | IC50 (MAO-B [1]; [4]) [nM] | other results
5.64 | COc1cccc(-c2cc3cc(C)ccc3oc2=O)c1 [CHEMBL570731] | 9.10 | 0.8 | –
4.41 | COc1ccc(-c2cc3cc(C)ccc3oc2=O)cc1 [CHEMBL572233] | – | – | pIC50 (MAO-B [1]; [5]): 7.88; IC50 (MAO-B [1]; [6]): 13.1 nM
1.46 | Cc1ccc2oc(=O)c(-c3ccccc3Br)cc2c1 [CHEMBL1221929] | – | – | pIC50 (MAO-B [1]; [7]): 5.37; IC50 (MAO-B [1]; [8]): 4300 nM
1.42 | COc1ccc(-c2cc3cc(C)cc(Br)c3oc2=O)cc1 [CHEMBL1221980] | – | – | pIC50 (MAO-B [1]; [7]): 5.49; IC50 (MAO-B [1]; [8]): 3230 nM
4.52 | COc1cc(OC)cc(-c2cc3cc(C)ccc3oc2=O)c1 [CHEMBL1783715] | – | – | pIC50 (MAO-B [1]; [5]): 8.05; IC50 (MAO-B [1]; [6]): 8.98 nM
3.18 | COc1cc(-c2cc3cc(C)ccc3oc2=O)cc(OC)c1OC [CHEMBL1783716] | – | – | pIC50 (MAO-B [1]; [5]): 6.79; IC50 (MAO-B [1]; [6]): 161 nM
4.30 | COc1ccc2oc(=O)c(-c3cccc(C)c3)cc2c1 [CHEMBL1835223] | 7.77 | 17.1 | –
5.35 | COc1ccc2oc(=O)c(-c3ccc(C)cc3)cc2c1 [CHEMBL1835224] | 8.82 | 1.52 | –
4.09 | Cc1cccc(-c2cc3cc(C)ccc3oc2=O)c1 [CHEMBL1835229] | 7.82 | 15 | –
5.04 | COc1ccc(-c2cc3cc(C)ccc3oc2=O)cc1OC [CHEMBL1835230] | 8.56 | 2.73 | –
5.05 | COc1ccc(-c2cc3cc(C)ccc3oc2=O)cc1Br [CHEMBL1835231] | 9.13 | 0.74 | –
4.41 | COc1cc(-c2cc3cc(C)ccc3oc2=O)ccc1Br [CHEMBL1835232] | 8.49 | 3.25 | –
0.20 | COc1cc(OC)c(Br)c(-c2cc3cc(C)ccc3oc2=O)c1 [CHEMBL1835233] | 4.27 | 54000 | –
3.44 | Cc1ccc2oc(=O)c(-c3cccc(O)c3)cc2c1 [CHEMBL1835326] | 6.19 | 650 | –
